{"source": "patent US11413278B2", "about": "“Compounds and methods for promoting stress resistance” (priority 2015, dated 2022)", "key": {"[1]": {"system": "phosphorylated γH2A.X and TP53BP1", "experiment": "DNA damage marker analysis (immuno-staining)", "conditions": "for activity at 10 µM: Homo sapiens, WI-38, 24 h", "how_it_was_run": "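WI-38 cells were cultured 24 h, then treated with compounds for 24 h; H2O2 (700 μM, 3 h) and doxorubicin (300 nM, 24 h) served as DNA-damage controls. After fixation, cells were immunostained for phospho-γH2A.X (Ser-139) and phospho-TP53BP1 (Ser-1778), counterstained with DAPI, and imaged by automated high-content microscopy.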"}, "WI-38 cells [2]": {"system": "WI-38 cells"}, "WI-38 cells [3]": {"system": "WI-38 cells", "experiment": "Long-term effects on cell viability (5 days, ATP; morphology, PI imaging)", "format": "cell-based"}, "WI-38 cells [4]": {"system": "WI-38 cells", "experiment": "MMS resistance assay", "format": "cell-based, human", "how_it_was_run": "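WI-38 cells were given compounds at five final concentrations (0.25–20 μM) in triplicate, followed by cadmium or MMS for 12 h. For MMS, medium was switched from OptiMEM+10% FBS to serum-free DMEM+2% BSA when compounds were added, 24 h before stressor. Two independent assays were run, analysed by global variance t-test.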"}, "[5]": {"system": "PC12 cells expressing poly(Q)103-Htt-EGFP", "experiment": "Poly(Q) toxicity & viability analysis (cellular model of Huntington's disease)", "format": "cell-based, rat", "how_it_was_run": "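PC12 cells stably carrying inducible poly(Q)103-Htt-EGFP, whose induced expression causes aggregation and toxicity. Viability read 48 hrs later as ATP content by CellTiter-Glo.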"}}, "note": "Like-named read-outs stand apart in the source and are kept apart here."}
{"smiles": "Oc1ccccc1-c1noc(-c2ccccc2O)n1", "note": "[O27]", "values": [{"measurement": "activity at 10 µM", "setting": "[1]; read-out: Experiment 1, H2A.X-P DNA damage foci staining (no H2O2 stress treatment), at 10 uM", "value": 122, "unit": "%"}, {"measurement": "activity at 10 µM", "setting": "[1]; read-out: Experiment 2, H2A.X-P DNA damage foci staining (no H2O2 stress treatment), at 10 uM", "value": 338, "unit": "%"}, {"measurement": "activity at 10 µM", "setting": "[1]; read-out: Experiment 2, H2A.X-P DNA damage foci staining (under H2O2 stress treatment), at 10 uM", "value": 26.1, "unit": "%"}, {"measurement": "activity at 10 µM", "setting": "[1]; read-out: Experiment 2, TP53BP1-P DNA damage foci staining (no H2O2 stress treatment), at 10 uM", "value": 241, "unit": "%"}, {"measurement": "activity at 10 µM", "setting": "[1]; read-out: Experiment 2, TP53BP1-P DNA damage foci staining (under H2O2 stress treatment), at 10 uM", "value": 379, "unit": "%"}, {"measurement": "R = Potential DNA damaging", "setting": "[1]; negative point, cultured human cells", "value": 1}, {"measurement": "P = Potential DNA-damaging", "setting": "[1]; summary score", "value": 1}, {"measurement": "H2O2-resistant", "setting": "WI-38 cells [2]; WI-38 cells, 10 μM, (*) = compromised ability to protect cells from H2O2, could be due to stability issue", "value": "YES"}, {"measurement": "Assay 1: H2O2-resistant", "setting": "WI-38 cells [2]; YES/NO, if NO, possibly due to repeated freezing/thawing of stocks", "value": "YES"}, {"measurement": "H2O2-resistant", "setting": "WI-38 cells [2]; asterisks indicate the loss of the ability to protect cells from H2O2 over time", "value": "YES"}, {"measurement": "EC50", "setting": "WI-38 cells [2]; derived from dose response curves, 0.6-20 uM, H2O2-resistance of WI-38 cells", "value": 12.7, "unit": "µM"}, {"measurement": "EC50", "setting": "WI-38 cells [2]; read-out: Est. ED50, dose response 0.6-20 μM, H2O2-resistance", "value": 12.7, "unit": "µM"}, {"measurement": "Luminescence signal for ATP measurement, day-1 Average", "setting": "WI-38 cells [3]", "value": 431303}, {"measurement": "Luminescence signal for ATP measurement, day-2 Average", "setting": "WI-38 cells [3]", "value": 437195}, {"measurement": "Luminescence signal for ATP measurement, day-3 Average", "setting": "WI-38 cells [3]", "value": 517210}, {"measurement": "Luminescence signal for ATP measurement, day-4 Average", "setting": "WI-38 cells [3]", "value": 634360}, {"measurement": "Luminescence signal for ATP measurement, day-5 Average", "setting": "WI-38 cells [3]", "value": 587798}, {"measurement": "viability at 10 µM", "setting": "WI-38 cells [3]; Homo sapiens, WI-38, 120 h, read-out: ATP luminescence by day-5 normalized", "value": 57.2, "unit": "%"}, {"measurement": "O = Potential toxicity", "setting": "WI-38 cells [3]; human, 5 days, 10 μM", "value": 0}, {"measurement": "Q = Potential toxicity", "setting": "WI-38 cells [3]; human, 5 days, 10 μM", "value": 1}, {"measurement": "Assay 5: Triple resistant", "setting": "WI-38 cells [4]; YES/NO, H2O2, cadmium and MMS", "value": "YES"}, {"measurement": "B = MMS resistant", "setting": "WI-38 cells [4]; score in summary of 38 core set hits", "value": 0}, {"measurement": "B = MMS resistant", "setting": "WI-38 cells [4]; summary score", "value": 0}, {"measurement": "D = Triple resistant", "setting": "WI-38 cells [4]; summary score", "value": 0}, {"measurement": "M = Huntington's poly-Q toxicity attenuation", "setting": "[5]; score", "value": 0}, {"measurement": "K = Huntington's poly-Q toxicity attenuation", "setting": "[5]; summary score", "value": 0}]}
